Source: publication PMC6211260 (Journal of Enzyme Inhibition and Medicinal Chemistry, 2018)

Columns and labels:
[1] = test system: PC-3 prostate cancer cell line; assay: NCI five-dose testing; assay type: cell-based; conditions: Homo sapiens
Method: (§1) Screening against the cancer cell lines was carried out at the National Cancer Institute (NCI, Bethesda, Maryland, USA) applying the standard protocol of the NCI[22].

[2] = test system: HOP-92 non-small cell lung cancer cell line; assay: NCI five-dose testing; assay type: cell-based; conditions: Homo sapiens
Method: as §1

[3] = test system: MDA-MB-468 breast cancer cell line; assay: NCI five-dose testing; assay type: cell-based; conditions: Homo sapiens
Method: as §1

[4] = test system: U251 CNS cancer cell line; assay: NCI five-dose testing; assay type: cell-based; conditions: Homo sapiens
Method: as §1

[5] = test system: A498 renal cancer cell line; assay: NCI five-dose testing; assay type: cell-based; conditions: Homo sapiens
Method: as §1

[6] = test system: HT-29 colon cancer cell line; assay: NCI five-dose testing; assay type: cell-based; conditions: Homo sapiens
Method: as §1

[7] = test system: SK-MEL-5 melanoma cell line; assay: NCI five-dose testing; assay type: cell-based; conditions: Homo sapiens
Method: as §1

[8] = test system: K-562 leukaemia cell line; assay: NCI five-dose testing; assay type: cell-based; conditions: Homo sapiens
Method: as §1

[9] = test system: OVCAR-4 ovarian cancer cell line; assay: NCI five-dose testing; assay type: cell-based; conditions: Homo sapiens
Method: as §1

CNS cancer cell lines = assay: NCI five-dose testing, subpanel mean; assay type: cell-based; conditions: subpanel IV: CNS cancer
Method: as §1

[10] = test system: prostate cancer cell lines; assay: NCI five-dose testing, subpanel mean; assay type: cell-based; conditions: subpanel VIII: prostate cancer
Method: as §1

[11] = test system: non-small cell lung cancer cell lines; assay: NCI five-dose testing, subpanel mean; assay type: cell-based; conditions: subpanel II: non-small cell lung cancer
Method: as §1

renal cancer cell lines = assay: NCI five-dose testing, subpanel mean; assay type: cell-based; conditions: subpanel VII: renal cancer
Method: as §1

melanoma cell lines = assay: NCI five-dose testing, subpanel mean; assay type: cell-based; conditions: subpanel V: melanoma
Method: as §1

colon cancer cell lines = assay: NCI five-dose testing, subpanel mean; assay type: cell-based; conditions: subpanel III: colon cancer
Method: as §1

Leukaemia cell lines = assay: NCI five-dose testing, subpanel mean; assay type: cell-based; conditions: subpanel I: Leukaemia
Method: as §1

breast cancer cell lines = assay: NCI five-dose testing, subpanel mean; assay type: cell-based; conditions: subpanel IX: breast cancer
Method: as §1

[12] = test system: ovarian cancer cell lines; assay: NCI five-dose testing, subpanel mean; assay type: cell-based; conditions: subpanel VI: ovarian cancer
Method: as §1

NCI-60 cell line panel = assay: NCI-60 single-dose (10 µM) antiproliferative screening, mean over panel; assay type: cell-based; conditions: single-dose 10 µM
Method: as §1
(§2) The final target compounds were submitted to the National Cancer Institute (NCI), Maryland, USA[23]. Thirty-one compounds were selected to be tested over 60 cell lines at single dose 10 µM.

[13] = test system: HCC-116 colon cancer cell line; assay: NCI-60 single-dose screening; assay type: cell-based; conditions: read-out: per cent inhibition
Method: as §1, §2

[14] = test system: Colo 205 colon cancer cell line; assay: NCI-60 single-dose screening; assay type: cell-based; conditions: Homo sapiens, read-out: per cent inhibition
Method: as §1, §2

[15] = test system: SF-295 CNS cancer cell line; assay: NCI-60 single-dose screening; assay type: cell-based; conditions: Homo sapiens, read-out: per cent inhibition
Method: as §1, §2

[16] = test system: HT29 colon cancer cell line; assay: NCI-60 single-dose screening; assay type: cell-based; conditions: 10 µM
Method: as §1, §2

SR leukaemia cell line = assay: NCI-60 single-dose screening; assay type: cell-based; conditions: 10 µM
Method: as §1, §2

BRAF (V600E) = target: T1, BRAF (V600E) (Homo sapiens, UniProt P15056, V600E); assay: In vitro kinase screening (Kinase HotSpot); assay type: biochemical; conditions: single dose of 10 µM, BRAF (V599E) in Table 6, BRAF (V600E) in text
T1 construct: purchased Reaction Biology Corp
T1 sequence (P15056 whole entry V600E): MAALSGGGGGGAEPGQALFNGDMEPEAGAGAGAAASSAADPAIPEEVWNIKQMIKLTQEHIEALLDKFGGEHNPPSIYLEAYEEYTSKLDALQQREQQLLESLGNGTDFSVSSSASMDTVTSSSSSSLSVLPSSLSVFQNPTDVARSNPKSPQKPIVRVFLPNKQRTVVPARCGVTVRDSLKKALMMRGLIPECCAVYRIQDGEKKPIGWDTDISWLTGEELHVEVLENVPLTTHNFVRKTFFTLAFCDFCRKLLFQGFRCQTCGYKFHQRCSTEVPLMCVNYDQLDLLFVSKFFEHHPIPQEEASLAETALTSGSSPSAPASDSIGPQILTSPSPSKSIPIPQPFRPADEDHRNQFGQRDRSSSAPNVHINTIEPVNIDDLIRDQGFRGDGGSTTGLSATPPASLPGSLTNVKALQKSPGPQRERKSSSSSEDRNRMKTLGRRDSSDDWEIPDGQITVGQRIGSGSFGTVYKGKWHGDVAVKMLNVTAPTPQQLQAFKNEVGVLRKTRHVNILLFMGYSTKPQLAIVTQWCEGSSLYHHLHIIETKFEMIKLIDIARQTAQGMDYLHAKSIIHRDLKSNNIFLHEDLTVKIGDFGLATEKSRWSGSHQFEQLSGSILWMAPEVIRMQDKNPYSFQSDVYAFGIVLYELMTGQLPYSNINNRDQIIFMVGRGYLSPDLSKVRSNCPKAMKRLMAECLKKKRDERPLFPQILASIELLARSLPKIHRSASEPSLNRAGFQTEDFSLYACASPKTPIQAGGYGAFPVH
Excerpt: (§3) To investigate the biological target of compound, Reaction Biology Corp. Kinase HotSpotSM service was used adopting standard assay protocol.

CDK2/cyclin E = target: T2, CDK2/cyclin E (Homo sapiens, UniProt P24941); assay: In vitro kinase screening (Kinase HotSpot); assay type: biochemical; conditions: single dose of 10 µM
T2 construct: purchased Reaction Biology Corp
Excerpt: as §3

JNK1 = target: T3, JNK1 (Homo sapiens, UniProt P45983); assay: In vitro kinase screening (Kinase HotSpot); assay type: biochemical; conditions: single dose of 10 µM
T3 construct: purchased Reaction Biology Corp
T3 sequence (P45983 whole entry): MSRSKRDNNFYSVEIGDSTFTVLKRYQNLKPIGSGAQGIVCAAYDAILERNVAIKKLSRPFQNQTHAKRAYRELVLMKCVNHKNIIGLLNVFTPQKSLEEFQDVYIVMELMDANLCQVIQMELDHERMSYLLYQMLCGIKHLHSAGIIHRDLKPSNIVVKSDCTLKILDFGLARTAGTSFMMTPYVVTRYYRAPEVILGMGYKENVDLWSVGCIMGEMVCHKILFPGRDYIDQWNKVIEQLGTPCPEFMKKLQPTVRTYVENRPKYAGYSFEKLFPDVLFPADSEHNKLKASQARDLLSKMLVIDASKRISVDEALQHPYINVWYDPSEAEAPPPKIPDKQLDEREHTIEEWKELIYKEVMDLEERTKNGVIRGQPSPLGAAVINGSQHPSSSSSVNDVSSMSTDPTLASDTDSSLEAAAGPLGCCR
Excerpt: as §3

P38a/MAPK14 = target: T4, P38a/MAPK14 (Homo sapiens, UniProt Q16539); assay: In vitro kinase screening (Kinase HotSpot); assay type: biochemical; conditions: single dose of 10 µM, P38a/MAPK14
T4 construct: purchased Reaction Biology Corp
T4 sequence (Q16539 whole entry): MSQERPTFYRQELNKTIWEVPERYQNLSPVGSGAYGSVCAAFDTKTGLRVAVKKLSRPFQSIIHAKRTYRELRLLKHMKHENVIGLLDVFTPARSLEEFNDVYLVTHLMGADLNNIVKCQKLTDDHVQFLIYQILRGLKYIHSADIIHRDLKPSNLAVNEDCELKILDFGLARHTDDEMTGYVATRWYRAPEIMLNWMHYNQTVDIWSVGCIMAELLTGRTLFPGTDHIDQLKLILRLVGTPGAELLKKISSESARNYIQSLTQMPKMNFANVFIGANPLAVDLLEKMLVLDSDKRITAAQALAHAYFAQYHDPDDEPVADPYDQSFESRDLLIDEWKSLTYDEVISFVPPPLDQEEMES
Excerpt: as §3

IKKb/IKBKB = target: T5, IKKb/IKBKB (Homo sapiens, UniProt O14920); assay: In vitro kinase screening (Kinase HotSpot); assay type: biochemical; conditions: single dose of 10 µM
T5 construct: purchased Reaction Biology Corp
T5 sequence (O14920 1-756): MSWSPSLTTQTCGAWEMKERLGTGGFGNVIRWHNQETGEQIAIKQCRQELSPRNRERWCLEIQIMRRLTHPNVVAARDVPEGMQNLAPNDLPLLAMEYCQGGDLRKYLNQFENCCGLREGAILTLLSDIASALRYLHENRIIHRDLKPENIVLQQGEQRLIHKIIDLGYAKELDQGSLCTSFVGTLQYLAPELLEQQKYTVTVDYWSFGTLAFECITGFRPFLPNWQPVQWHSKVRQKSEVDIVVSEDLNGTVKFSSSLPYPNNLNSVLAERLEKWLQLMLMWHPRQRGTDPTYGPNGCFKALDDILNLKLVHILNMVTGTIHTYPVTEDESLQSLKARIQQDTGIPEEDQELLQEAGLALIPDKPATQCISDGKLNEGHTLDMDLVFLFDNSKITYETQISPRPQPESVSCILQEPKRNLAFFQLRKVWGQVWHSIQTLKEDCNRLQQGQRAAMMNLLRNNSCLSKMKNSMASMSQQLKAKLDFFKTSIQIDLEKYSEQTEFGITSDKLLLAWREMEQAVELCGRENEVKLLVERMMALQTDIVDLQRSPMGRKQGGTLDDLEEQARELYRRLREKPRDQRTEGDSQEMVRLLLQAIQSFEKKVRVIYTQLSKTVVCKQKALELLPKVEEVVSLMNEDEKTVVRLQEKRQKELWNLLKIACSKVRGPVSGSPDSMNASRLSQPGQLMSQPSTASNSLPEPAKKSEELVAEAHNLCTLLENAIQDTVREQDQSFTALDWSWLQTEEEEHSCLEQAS
Excerpt: as §3

ROS/ROS1 = target: T6, ROS/ROS1 (Homo sapiens, UniProt P08922); assay: In vitro kinase screening (Kinase HotSpot); assay type: biochemical; conditions: single dose of 10 µM
T6 construct: purchased Reaction Biology Corp
Excerpt: as §3

GSK3b = target: T7, GSK3b (Homo sapiens, UniProt P49841); assay: In vitro kinase screening (Kinase HotSpot); assay type: biochemical; conditions: single dose of 10 µM
T7 construct: purchased Reaction Biology Corp
T7 sequence (P49841 whole entry): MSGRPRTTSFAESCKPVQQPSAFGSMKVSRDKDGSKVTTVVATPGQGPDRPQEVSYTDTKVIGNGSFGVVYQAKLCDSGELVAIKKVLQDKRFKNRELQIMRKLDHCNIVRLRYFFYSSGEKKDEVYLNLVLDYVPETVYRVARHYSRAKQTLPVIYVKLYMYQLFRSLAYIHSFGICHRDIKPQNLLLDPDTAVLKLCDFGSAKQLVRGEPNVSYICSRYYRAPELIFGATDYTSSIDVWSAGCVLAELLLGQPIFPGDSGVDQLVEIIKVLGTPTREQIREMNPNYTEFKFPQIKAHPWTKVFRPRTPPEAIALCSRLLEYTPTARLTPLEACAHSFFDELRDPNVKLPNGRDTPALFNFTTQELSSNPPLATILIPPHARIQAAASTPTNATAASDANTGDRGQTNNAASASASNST
Excerpt: as §3

EGFR = target: T8, EGFR (Homo sapiens, UniProt P00533); assay: In vitro kinase screening (Kinase HotSpot); assay type: biochemical; conditions: single dose of 10 µM
T8 construct: purchased Reaction Biology Corp
T8 sequence (P00533 25-1210): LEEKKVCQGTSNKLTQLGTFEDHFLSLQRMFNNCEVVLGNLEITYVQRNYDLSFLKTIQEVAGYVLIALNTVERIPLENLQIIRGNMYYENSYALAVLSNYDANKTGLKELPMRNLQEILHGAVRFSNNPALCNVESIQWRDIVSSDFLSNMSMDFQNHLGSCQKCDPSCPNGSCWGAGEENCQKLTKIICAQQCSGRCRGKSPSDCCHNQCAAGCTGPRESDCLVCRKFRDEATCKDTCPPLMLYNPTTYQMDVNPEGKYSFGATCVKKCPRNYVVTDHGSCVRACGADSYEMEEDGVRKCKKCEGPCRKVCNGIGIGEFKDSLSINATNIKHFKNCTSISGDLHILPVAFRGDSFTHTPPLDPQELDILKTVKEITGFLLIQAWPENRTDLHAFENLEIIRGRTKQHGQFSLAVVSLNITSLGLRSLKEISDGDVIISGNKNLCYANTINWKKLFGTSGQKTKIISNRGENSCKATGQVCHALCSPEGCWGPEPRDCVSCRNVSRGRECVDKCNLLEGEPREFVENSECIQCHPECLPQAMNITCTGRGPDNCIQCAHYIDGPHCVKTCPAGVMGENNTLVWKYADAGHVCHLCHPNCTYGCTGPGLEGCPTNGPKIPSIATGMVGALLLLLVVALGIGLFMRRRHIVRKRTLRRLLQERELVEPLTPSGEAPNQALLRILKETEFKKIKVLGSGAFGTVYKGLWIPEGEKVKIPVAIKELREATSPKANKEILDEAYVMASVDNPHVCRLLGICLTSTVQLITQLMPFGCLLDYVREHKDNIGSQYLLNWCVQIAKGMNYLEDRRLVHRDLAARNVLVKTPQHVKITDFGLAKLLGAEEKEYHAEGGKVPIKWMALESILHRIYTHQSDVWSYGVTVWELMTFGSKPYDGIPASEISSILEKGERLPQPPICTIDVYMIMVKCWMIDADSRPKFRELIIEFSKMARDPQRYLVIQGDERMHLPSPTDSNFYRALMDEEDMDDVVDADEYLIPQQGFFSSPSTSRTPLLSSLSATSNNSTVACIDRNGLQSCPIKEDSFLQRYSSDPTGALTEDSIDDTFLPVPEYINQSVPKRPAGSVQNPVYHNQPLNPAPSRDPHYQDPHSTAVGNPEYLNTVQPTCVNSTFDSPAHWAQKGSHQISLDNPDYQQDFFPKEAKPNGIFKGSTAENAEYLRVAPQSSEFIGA
Excerpt: as §3

JNK3 = target: T9, JNK3 (Homo sapiens, UniProt P53779); assay: In vitro kinase screening (Kinase HotSpot); assay type: biochemical; conditions: single dose of 10 µM
T9 construct: purchased Reaction Biology Corp
T9 sequence (P53779 whole entry): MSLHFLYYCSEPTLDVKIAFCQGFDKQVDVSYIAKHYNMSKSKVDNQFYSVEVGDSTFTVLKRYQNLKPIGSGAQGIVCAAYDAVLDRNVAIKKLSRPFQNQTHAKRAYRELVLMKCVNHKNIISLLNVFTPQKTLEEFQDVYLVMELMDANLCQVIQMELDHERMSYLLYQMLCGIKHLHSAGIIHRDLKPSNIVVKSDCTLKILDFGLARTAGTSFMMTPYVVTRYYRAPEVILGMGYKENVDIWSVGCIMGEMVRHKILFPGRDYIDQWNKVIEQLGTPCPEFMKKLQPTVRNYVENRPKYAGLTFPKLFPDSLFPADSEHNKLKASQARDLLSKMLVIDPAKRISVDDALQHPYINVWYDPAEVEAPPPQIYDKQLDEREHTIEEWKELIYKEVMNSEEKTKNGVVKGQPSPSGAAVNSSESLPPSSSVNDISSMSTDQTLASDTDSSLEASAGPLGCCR
Excerpt: as §3

JNK2 = target: T10, JNK2 (Homo sapiens, UniProt P45984); assay: In vitro kinase screening (Kinase HotSpot); assay type: biochemical; conditions: single dose of 10 µM
T10 construct: purchased Reaction Biology Corp
T10 sequence (P45984 whole entry): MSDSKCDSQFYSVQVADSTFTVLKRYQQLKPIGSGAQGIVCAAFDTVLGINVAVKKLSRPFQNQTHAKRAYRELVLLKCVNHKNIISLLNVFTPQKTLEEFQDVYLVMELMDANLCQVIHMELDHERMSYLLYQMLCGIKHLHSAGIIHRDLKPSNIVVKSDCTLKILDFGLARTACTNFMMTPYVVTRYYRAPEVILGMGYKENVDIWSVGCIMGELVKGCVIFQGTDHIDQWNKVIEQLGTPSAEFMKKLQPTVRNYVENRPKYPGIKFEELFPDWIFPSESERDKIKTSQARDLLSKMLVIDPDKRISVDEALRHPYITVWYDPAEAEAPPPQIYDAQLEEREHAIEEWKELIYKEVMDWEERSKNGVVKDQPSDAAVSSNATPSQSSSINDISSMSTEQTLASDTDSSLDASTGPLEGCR
Excerpt: as §3

BRAF = target: T11, BRAF (Homo sapiens, UniProt P15056); assay: In vitro kinase screening (Kinase HotSpot); assay type: biochemical; conditions: single dose of 10 µM
T11 construct: purchased Reaction Biology Corp
T11 sequence (P15056 whole entry): as the sequence (P15056 whole entry V600E) above, with E600V counted along it
Excerpt: as §3

ABL1 (T315I) = target: T12, ABL1 (T315I) (Homo sapiens, UniProt P00519, T315I); assay: In vitro kinase screening (Kinase HotSpot); assay type: biochemical; conditions: single dose of 10 µM
T12 construct: purchased Reaction Biology Corp
Excerpt: as §3

O=S(=O)(NCCCNc1cc(-c2cn(-c3ccccc3)nc2-c2cccc(O)c2)ccn1)c1ccc(Br)cc1 [Compound 2k, 4-Bromo-N-(3-((4-(3-(3-hydroxyphenyl)-1-phenyl-1H-pyrazol-4-yl)pyridin-2-yl)amino)propyl)benzenesulfonamide]
LC50 (lethal concentration 50) ([1]; PC-3, read-out: LD50 (lethal dose 50)): > 100000 nM | IC50 ([1]; PC-3, read-out: IC50): 2110 nM | IC (TGI) ([1]; PC-3, read-out: TGI (total growth inhibition concentration)): 7800 nM | IC50 ([2]; HOP-92): 1830 nM | IC (TGI) ([2]; HOP-92, HOP-92, read-out: TGI (total growth inhibition concentration)): 7500 nM | LD50 (lethal dose 50) ([2]; HOP-92, read-out: LD50 (lethal dose 50)): > 100 µM | IC50 ([3]; MDA-MB-468): 1540 nM | CC50 ([3]; MDA-MB-468, read-out: LD50 (lethal dose 50)): > 100000 nM | IC (TGI) ([3]; MDA-MB-468, read-out: TGI (total growth inhibition concentration)): 5600 nM | CC50 ([4]; U-251, read-out: LD50 (lethal dose 50)): 19900 nM | IC50 ([4]; U-251, U251, read-out: IC50): 1210 nM | IC (TGI) ([4]; U-251, U251, read-out: TGI (total growth inhibition concentration)): 4400 nM | IC50 ([5]; A498): 380 nM | LC50 (lethal concentration 50%) ([5]; A498, read-out: LD50 (lethal dose 50)): 11900 nM | IC (TGI) ([5]; A498, read-out: TGI (total growth inhibition concentration)): 2800 nM | CC50 ([6]; HT-29, read-out: LD50 (lethal dose 50)): 7100 nM | IC50 ([6]; HT-29, read-out: IC50): 630 nM | IC (TGI) ([6]; HT-29, read-out: TGI (total growth inhibition concentration)): 2300 nM | IC50 ([7]; SK-MEL-5): 1270 nM | LC50 (lethal concentration 50) ([7]; SK-MEL-5, read-out: LD50 (lethal dose 50)): 5300 nM | IC (TGI) ([7]; SK-MEL-5, read-out: TGI (total growth inhibition concentration)): 2600 nM | CC50 ([8]; K562, read-out: LD50 (lethal dose 50)): > 100000 nM | IC50 ([8]; K562, K-562): 440 nM | IC (TGI) ([8]; K562, K-562, read-out: TGI (total growth inhibition concentration)): 2800 nM | IC50 ([9]; OVCAR-4): 1660 nM | LC50 (lethal concentration 50) ([9]; OVCAR-4, read-out: LD50 (lethal dose 50)): > 100000 nM | IC (TGI) ([9]; OVCAR-4, read-out: TGI (total growth inhibition concentration)): 8600 nM | IC50 (CNS cancer cell lines): 1700 nM | IC50 [10]: 2030 nM | IC50 [11]: 1960 nM | IC50 (renal cancer cell lines): 1890 nM | IC50 (melanoma cell lines): 1620 nM | IC50 (colon cancer cell lines): 1480 nM | IC50 (Leukaemia cell lines): 1550 nM | IC50 (breast cancer cell lines): 1110 nM | IC50 [12]: 2110 nM | inhibition at 10 µM (NCI-60 cell line panel; 60-cancer cell line screening): 90.6% | number of cell lines with more than 100% inhibition (NCI-60 cell line panel; NCI-60 panel): 13 | inhibition at 10 µM [13]: 140% | inhibition at 10 µM [14]: 168% | inhibition at 10 µM [15]: 147%

COc1cccc(-c2nn(-c3ccccc3)cc2-c2ccnc(NCCCNS(=O)(=O)c3ccc(Cl)cc3)c2)c1 [Compound 2c, 4-Chloro-N-(3-((4-(3-(3-methoxyphenyl)-1-phenyl-1H-pyrazol-4-yl)pyridin-2-yl)amino)propyl) benzenesulfonamide]
per cent inhibition [16]: 88.66% | per cent inhibition (SR leukaemia cell line): 92.74% | Inhibition % (BRAF (V600E)): 44.20 ± 0.40% | Inhibition % (CDK2/cyclin E): 9.80 ± 1.01% | Inhibition % (JNK1): 69.19 ± 0.02% | Inhibition % (P38a/MAPK14): 65.73 ± 0.66% | Inhibition % (IKKb/IKBKB): 7.79 ± 0.15% | Inhibition % (ROS/ROS1): 3.40 ± 0.39% | Inhibition % (GSK3b): 49.31 ± 0.30% | Inhibition % (EGFR): 9.20 ± 4.45% | Inhibition % (JNK3): 24.23 ± 0.03% | Inhibition % (JNK2): 59.68 ± 0.01% | Inhibition % (BRAF): 20.87 ± 0.30% | Inhibition % (ABL1 (T315I)): 4.53 ± 0.45%
